Target: PLK1 (Homo sapiens, UniProt P53350)
Experiment: PLK1 Inhibition Assay I (radioactive-phosphate incorporation)
Format: biochemical
Details: Ki(app); PLK1 Inhibition Assay I or II (table does not say which)
Summary of the method: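 Ki(app) values came from non-linear regression of initial rates after background subtraction, with phosphopeptide measured by phosphocellulose filter binding and scintillation counting. PLK1 at 2 nM was preincubated with compound (typically from 10 μM, 2-fold dilutions) for 10 min, then run 240 min at 25° C with 350 μM [γ-33P]ATP and 450 μM peptide substrate in HEPES pH 7.5 buffer.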

PLK1, sequence (P53350 whole entry): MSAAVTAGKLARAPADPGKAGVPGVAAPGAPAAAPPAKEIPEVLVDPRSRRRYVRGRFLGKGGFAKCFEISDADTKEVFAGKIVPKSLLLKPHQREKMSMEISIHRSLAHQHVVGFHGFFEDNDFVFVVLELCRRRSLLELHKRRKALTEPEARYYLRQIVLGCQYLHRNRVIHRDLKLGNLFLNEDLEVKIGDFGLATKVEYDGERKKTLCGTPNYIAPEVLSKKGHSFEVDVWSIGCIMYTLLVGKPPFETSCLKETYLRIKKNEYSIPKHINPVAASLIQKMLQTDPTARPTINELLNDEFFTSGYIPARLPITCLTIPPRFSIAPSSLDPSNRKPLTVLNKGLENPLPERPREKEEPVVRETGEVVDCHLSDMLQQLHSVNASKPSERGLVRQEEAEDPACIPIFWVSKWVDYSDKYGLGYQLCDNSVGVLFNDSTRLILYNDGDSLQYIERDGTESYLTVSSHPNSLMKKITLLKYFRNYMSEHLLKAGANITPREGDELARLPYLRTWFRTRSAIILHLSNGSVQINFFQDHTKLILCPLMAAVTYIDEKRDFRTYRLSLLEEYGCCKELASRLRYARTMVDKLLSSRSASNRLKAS

Cc1ccc(S(=O)(=O)N2CCC(C(C)Nc3ncc(C#N)c(-c4c[nH]c5ncc(C(F)(F)F)cc45)n3)CC2)cc1 (stereo not shown) [Compound I-165, 2-(1-(1-tosylpiperidin-4-yl)ethylamino)-4-(5-(trifluoromethyl)-1H-pyrrolo[2,3-b]pyridin-3-yl)pyrimidine-5-carbonitrile] showed a Ki of 3 to 40 nM.
CC(Nc1ncc(C#N)c(-c2c[nH]c3ncc(C(F)(F)F)cc23)n1)C1CCN(CC#N)CC1 (stereo not shown) [Compound I-166, 2-(1-(1-(cyanomethyl)piperidin-4-yl)ethylamino)-4-(5-(trifluoromethyl)-1H-pyrrolo[2,3-b]pyridin-3-yl)pyrimidine-5-carbonitrile] showed a Ki of under 3 nM.
Compound C[C@@H](Nc1ncc(C#N)c(-c2c[nH]c3ncc(C(F)(F)F)cc23)n1)c1ccc(NS(=O)(=O)C2CC2)cc1 [Compound I-168, N-(4-((1R)-1-(5-cyano-4-(5-(trifluoromethyl)-1H-pyrrolo[2,3-b]pyridin-3-yl)pyrimidin-2-ylamino)ethyl)phenyl)cyclopropanesulfonamide] has a Ki of under 3 nM.
In the case of CCS(=O)(=O)Nc1ccc([C@@H](C)Nc2ncc(C#N)c(-c3c[nH]c4ncc(C(F)(F)F)cc34)n2)cc1 [Compound I-169, N-(4-((1R)-1-(5-cyano-4-(5-(trifluoromethyl)-1H-pyrrolo[2,3-b]pyridin-3-yl)pyrimidin-2-ylamino)ethyl)phenyl)ethanesulfonamide], the Ki is reported as under 3 nM.
Compound CCNC(=O)c1ccc([C@@H](C)Nc2ncc(C#N)c(-c3c[nH]c4ncc(C(F)(F)F)cc34)n2)cc1 [Compound I-170, 4-((1R)-1-(5-cyano-4-(5-(trifluoromethyl)-1H-pyrrolo[2,3-b]pyridin-3-yl)pyrimidin-2-ylamino)ethyl)-N-ethylbenzamide] has a Ki of under 3 nM.
For C[C@@H](Nc1ncc(C#N)c(-c2c[nH]c3ncc(C(F)(F)F)cc23)n1)c1ccc(C(=O)NC2CC2)cc1 [Compound I-171, 4-((1R)-1-(5-cyano-4-(5-(trifluoromethyl)-1H-pyrrolo[2,3-b]pyridin-3-yl)pyrimidin-2-ylamino)ethyl)-N-cyclopropylbenzamide], the Ki was 3 to 40 nM.
Work on CC(C)NC(=O)c1ccc([C@@H](C)Nc2ncc(C#N)c(-c3c[nH]c4ncc(C(F)(F)F)cc34)n2)cc1 [Compound I-172, 4-((1R)-1-(5-cyano-4-(5-(trifluoromethyl)-1H-pyrrolo[2,3-b]pyridin-3-yl)pyrimidin-2-ylamino)ethyl)-N-isopropylbenzamide] yielded a Ki of 3 to 40 nM.
CCC(Nc1ncc(C#N)c(-c2c[nH]c3ncc(C(F)(F)F)cc23)n1)C1CCN(CC#N)CC1 (stereo not shown) [Compound I-173, 2-(1-(1-(cyanomethyl)piperidin-4-yl)propylamino)-4-(5-(trifluoromethyl)-1H-pyrrolo[2,3-b]pyridin-3-yl)pyrimidine-5-carbonitrile] showed a Ki of under 3 nM.
CCC(Nc1ncc(C#N)c(-c2c[nH]c3ncc(C(F)(F)F)cc23)n1)C1CCN(C(C)=O)CC1 (stereo not shown) [Compound I-174, 2-(1-(1-acetylpiperidin-4-yl)propylamino)-4-(5-(trifluoromethyl)-1H-pyrrolo[2,3-b]pyridin-3-yl)pyrimidine-5-carbonitrile] showed a Ki of under 3 nM.
Compound CCC(Nc1ncc(C#N)c(-c2c[nH]c3ncc(C(F)(F)F)cc23)n1)C1CCN(S(=O)(=O)CC)CC1 (stereo not shown) [Compound I-175, 2-(1-(1-(ethylsulfonyl)piperidin-4-yl)propylamino)-4-(5-(trifluoromethyl)-1H-pyrrolo[2,3-b]pyridin-3-yl)pyrimidine-5-carbonitrile] has a Ki of under 3 nM.
Compound C[C@@H](Nc1ncc(C#N)c(-c2c[nH]c3ncc(C(F)(F)F)cc23)n1)c1ccc(C(N)=O)cc1 [Compound I-176, 4-((1R)-1-(5-cyano-4-(5-(trifluoromethyl)-1H-pyrrolo[2,3-b]pyridin-3-yl)pyrimidin-2-ylamino)ethyl)benzamide] has a Ki of under 3 nM.
With C[C@@H](Nc1ncc(C#N)c(-c2c[nH]c3ncc(C(F)(F)F)cc23)n1)c1ccc(NS(C)(=O)=O)c(F)c1 [Compound I-177, N-(4-((1R)-1-(5-cyano-4-(5-(trifluoromethyl)-1H-pyrrolo[2,3-b]pyridin-3-yl)pyrimidin-2-ylamino)ethyl)-2-fluorophenyl)methanesulfonamide] the Ki was under 3 nM.
In the case of C#CCN1CCC(C(C)Nc2ncc(C#N)c(-c3c[nH]c4ncc(C(F)(F)F)cc34)n2)CC1 (stereo not shown) [Compound I-178, 2-(1-(1-(prop-2-ynyl)piperidin-4-yl)ethylamino)-4-(5-(trifluoromethyl)-1H-pyrrolo[2,3-b]pyridin-3-yl)pyrimidine-5-carbonitrile], the Ki is reported as 3 to 40 nM.
C[C@@H](Nc1ncc(C#N)c(-c2c[nH]c3ncc(C(F)(F)F)cc23)n1)[C@H]1CC[C@H](O)CC1 [Compound I-179, 2-((R)-1-((1r,4R)-4-hydroxycyclohexyl)ethylamino)-4-(5-(trifluoromethyl)-1H-pyrrolo[2,3-b]pyridin-3-yl)pyrimidine-5-carbonitrile] was tested, and the Ki was under 3 nM.
In the case of C[C@@H](Nc1ncc(C#N)c(-c2c[nH]c3ncc(C(F)(F)F)cc23)n1)[C@H]1CC[C@@H](O)CC1 [Compound I-180, 2-((R)-1-((1s,4S)-4-hydroxycyclohexyl)ethylamino)-4-(5-(trifluoromethyl)-1H-pyrrolo[2,3-b]pyridin-3-yl)pyrimidine-5-carbonitrile], the Ki is reported as under 3 nM.
CCN(CC)S(=O)(=O)c1ccc(C(C)Nc2ncc(C#N)c(-c3c[nH]c4ncc(C(F)(F)F)cc34)n2)cc1 (stereo not shown) [Compound I-181, 4-(1-(5-cyano-4-(5-(trifluoromethyl)-1H-pyrrolo[2,3-b]pyridin-3-yl)pyrimidin-2-ylamino)ethyl)-N,N-diethylbenzenesulfonamide] gave a Ki of 3 to 40 nM.
With CCC(Nc1ncc(C#N)c(-c2c[nH]c3ncc(C(F)(F)F)cc23)n1)C1CCN(S(=O)(=O)C(C)C)CC1 (stereo not shown) [Compound I-182, 2-(1-(1-(isopropylsulfonyl)piperidin-4-yl)propylamino)-4-(5-(trifluoromethyl)-1H-pyrrolo[2,3-b]pyridin-3-yl)pyrimidine-5-carbonitrile] the Ki was 3 to 40 nM.
In the case of COCC(=O)N1CCC(C(C)Nc2ncc(C#N)c(-c3c[nH]c4ncc(C(F)(F)F)cc34)n2)CC1 (stereo not shown) [Compound I-183, 2-(1-(1-(2-methoxyacetyl)piperidin-4-yl)ethylamino)-4-(5-(trifluoromethyl)-1H-pyrrolo[2,3-b]pyridin-3-yl)pyrimidine-5-carbonitrile], the Ki is reported as under 3 nM.
COCCC(=O)N1CCC(C(C)Nc2ncc(C#N)c(-c3c[nH]c4ncc(C(F)(F)F)cc34)n2)CC1 (stereo not shown) [Compound I-184, 2-(1-(1-(3-methoxypropanoyl)piperidin-4-yl)ethylamino)-4-(5-(trifluoromethyl)-1H-pyrrolo[2,3-b]pyridin-3-yl)pyrimidine-5-carbonitrile] showed a Ki of under 3 nM.
C[C@@H](Nc1ncc(C#N)c(-c2c[nH]c3ncc(C(F)(F)F)cc23)n1)c1ccc(CO)cc1 [Compound I-185, 2-((R)-1-(4-(hydroxymethyl)phenyl)ethylamino)-4-(5-(trifluoromethyl)-1H-pyrrolo[2,3-b]pyridin-3-yl)pyrimidine-5-carbonitrile] showed a Ki of under 3 nM.
For C[C@@H](Nc1ncc(C#N)c(-c2c[nH]c3ncc(C(F)(F)F)cc23)n1)c1ccc(C(=O)O)cc1 [Compound I-186, 4-((1R)-1-(5-cyano-4-(5-(trifluoromethyl)-1H-pyrrolo[2,3-b]pyridin-3-yl)pyrimidin-2-ylamino)ethyl)benzoic acid], the Ki was under 3 nM.
Work on CCC(=O)N1CCC(C(C)Nc2ncc(C#N)c(-c3c[nH]c4ncc(C(F)(F)F)cc34)n2)CC1 (stereo not shown) [Compound I-187, 2-(1-(1-propionylpiperidin-4-yl)ethylamino)-4-(5-(trifluoromethyl)-1H-pyrrolo[2,3-b]pyridin-3-yl)pyrimidine-5-carbonitrile] yielded a Ki of under 3 nM.
CC(Nc1ncc(C#N)c(-c2c[nH]c3ncc(C(F)(F)F)cc23)n1)C1CCN(C(=O)CN)CC1 (stereo not shown) [Compound I-188, 2-(1-(1-(2-aminoacetyl)piperidin-4-yl)ethylamino)-4-(5-(trifluoromethyl)-1H-pyrrolo[2,3-b]pyridin-3-yl)pyrimidine-5-carbonitrile] gave a Ki of under 3 nM.
CNCC(=O)N1CCC(C(C)Nc2ncc(C#N)c(-c3c[nH]c4ncc(C(F)(F)F)cc34)n2)CC1 (stereo not shown) [Compound I-189, 2-(1-(1-(2-(methylamino)acetyl)piperidin-4-yl)ethylamino)-4-(5-(trifluoromethyl)-1H-pyrrolo[2,3-b]pyridin-3-yl)pyrimidine-5-carbonitrile] was tested, and the Ki was under 3 nM.
With C[C@@H](Nc1ncc(C#N)c(-c2c[nH]c3ncc(C(F)(F)F)cc23)n1)c1ccc(S(=O)(=O)N(C)C)cc1 [Compound I-190, 4-((1R)-1-(5-cyano-4-(5-(trifluoromethyl)-1H-pyrrolo[2,3-b]pyridin-3-yl)pyrimidin-2-ylamino)ethyl)-N,N-dimethylbenzenesulfonamide] the Ki was under 3 nM.
For CC(Nc1ncc(C#N)c(-c2c[nH]c3ncc(C(F)(F)F)cc23)n1)c1ccc(N2CC(F)(C3CC3)C2)nc1 (stereo not shown) [Compound I-191, 2-(1-(6-(3-cyclopropyl-3-fluoroazetidin-1-yl)pyridin-3-yl)ethylamino)-4-(5-(trifluoromethyl)-1H-pyrrolo[2,3-b]pyridin-3-yl)pyrimidine-5-carbonitrile], the Ki was 3 to 40 nM.
Compound CC(Nc1ncc(C#N)c(-c2c[nH]c3ncc(C(F)(F)F)cc23)n1)C1CCN(C(=O)CO)CC1 (stereo not shown) [Compound I-192, 2-(1-(1-(2-hydroxyacetyl)piperidin-4-yl)ethylamino)-4-(5-(trifluoromethyl)-1H-pyrrolo[2,3-b]pyridin-3-yl)pyrimidine-5-carbonitrile] has a Ki of under 3 nM.
With CC(Nc1ncc(C#N)c(-c2c[nH]c3ncc(C(F)(F)F)cc23)n1)C1CCN(C(=O)CN(C)C)CC1 (stereo not shown) [Compound I-193, 2-(1-(1-(2-(dimethylamino)acetyl)piperidin-4-yl)ethylamino)-4-(5-(trifluoromethyl)-1H-pyrrolo[2,3-b]pyridin-3-yl)pyrimidine-5-carbonitrile] the Ki was under 3 nM.

Reference: US8530489B2 (Vertex Pharmaceuticals Incorporated, priority 2006, dated 2013)
